# Earlier results in article PMC4537502 (Psychopharmacology, 2015).
# Key:
# striatal D2Rs = system: striatal D2Rs; parameters: method as in Ekesbo et al. ([1999]); conditions: rhesus monkeys, continuous infusion 3 mg/kg/h, ref Ekesbo et al. ([1999]); cited from earlier work
# D2R [1] = target: D2R; parameters: method as in Pettersson et al. [2010]; conditions: ref Pettersson et al. [2010]; read-out: high-affinity Ki at D2R; cited from earlier work
# sigma-1R = conditions: ref Sahlholm et al. [2013], cited from earlier work
# D2R [2] = system: D2R; parameters: method as in Tolboom et al. [2015]; conditions: human subjects, ref Tolboom et al. [2015], cited from earlier work
smiles,measurement,setting,value
CCCN1CCC[C@@H](c2cccc(S(C)(=O)=O)c2)C1 [(−)-OSU6162],displacement of ^11C-raclopride,striatal D2Rs,76%
same,Ki,D2R [1],760 nM
same,Ki,"sigma-1R; ^3H-(+)-pentazocine competition, read-out: high-affinity Ki at sigma-1R",~360 nM
same,affinity for sigma-1R relative to D2R,sigma-1R; Pettersson et al. [2010],about two times higher affinity for sigma-1R than for D2R
same,D2R occupancy,D2R [2]; doses 15 to 90 mg (0.14 to 1.25 mg/kg),2 to 33%
same,level at which the dose-occupancy curve appeared to level off,D2R [2],40%
